One test has as its target T1, Src^32KΔC (Mus musculus, UniProt P05480).
T1 construct: mouse Src^85-523 (Src^32KΔC); GST (cleaved yes); made in house; host or cells: baculovirus-infected Sf9 insect cells
The test can be described thus: Competition nucleotide displacement assay (Mant-ADP, fluorescence anisotropy). It is filed as binding. The note with it: 40 μM Src^32KΔC, 40 μM Mant-ADP; read-out: Ki (equilibrium inhibition constant). The procedure:
Figure 2 Itk adopts a Src-like autoinhibited conformation. (a) Competition nucleotide displacement assay for Src^32KΔC. 40 μM Src^32KΔC was incubated with 40 μM Mant-ADP until equilibrium was established. Unlabelled ADP or AMPPNP was titrated into the reaction and fluorescence anisotropy monitored. […] (b) Small angle X-ray scattering curves for Itk^32K (cyan), Src^32K (magenta), Src^32KΔC (blue), and Src^32K R175L (green). […] (d) Table of physical parameters obtained from the scattering curves for Itk^32K, Src^32K, Src^32KΔC, and Src^32K R175L. (e)Ab initio model of Itk^32K and docking of autoinhibited Src (2SRC.pdb) into the molecular envelope. Two orientations of the envelope are shown for clarity. (f) Ab initio molecular envelope for Src^32KΔC illustrates the fit of the crystal structure of autoinhibited Src. TEXT PRINTED IN THE PICTURE: (a) ADP: Src^32KΔC Ki (mM): 0.03 ± 0.008 | (a) ANP: Src^32KΔC Ki (mM): 0.69 ± 0.140
(§1) The binding constants for ADP and AMPPNP were determined for Src and Itk proteins by fluorescence anisotropy, using 2′/3′-Mant-labelled nucleotides (Jena Bioscience). Increasing concentrations of Itk^32K, Itk^L351A or Src^32K were incubated with 40 μM Mant-nucleotide in 30 mM Tris pH 7.5, 200 mM NaCl, 5 mM MgCl2, and 1 mM TCEP. Measurements were made with a Perkin Elmer LS50B fluorimeter (λex = 355 nm, λem = 447 nm) at 20 °C. For each data point 50–60 measurements, each with an integration time of 1 s, were averaged. For competition nucleotide displacement assays, 40–80 μM of protein was incubated with 40 μM Mant-ADP until equilibrium was established. Unlabelled nucleotide was titrated into the reaction and fluorescence anisotropy monitored. The equilibrium inhibition constant for the unlabelled nucleotide was calculated from the fitted curve.
In general terms: Polarisation of emitted light reports the rotation of a fluorescent probe.

In a further test the target is T2, Src^32K (Mus musculus, UniProt P05480).
T2 construct: mouse Src^85-535 (Src^32K); GST (cleaved yes); made in house; host or cells: baculovirus-infected Sf9 insect cells, co-expressed with human Csk
Nature of the test: Fluorescence anisotropy binding of Mant-labelled nucleotides. The note with it: direct Mant-nucleotide binding.
Excerpt: To characterise the nucleotide binding of Itk and Src, we purified recombinant wild type and mutant constructs of Itk and Src containing their respective SH3, SH2, and kinase domains (from here on referred to as Itk^32K, Src^32K, and Src^32KΔC, Fig. 1a). We confirmed the mass and homogeneity of isolated species by high-resolution anion exchange chromatography, intact mass spectrometry, and Western blotting with phospho-specific antibodies (Supplementary Figs 1–3). We performed fluorescence anisotropy measurements using Mant-labelled nucleotides. […] To avoid autophosphorylation during the course of the titration, we used the non-hydrolysable ATP analogue AMPPNP. […] Src^32K bound ADP approximately 6-fold more tightly than AMPPNP (Supplementary Fig. 4d).
Human Itk^171–620 (Itk^32K), mouse Src^85-535 (Src^32K), and mouse Src^85-523 (Src^32KΔC) as well as their respective point mutants were expressed as GST fusions in baculovirus-infected Sf9 insect cells. For the generation of Tyr527-phosphorylated Src^85-535, the protein was co-expressed with human Csk using pFastBac Dual (Invitrogen). Proteins were purified by sequential glutathione-sepharose affinity chromatography, TEV cleavage, high-resolution anion exchange, and size exclusion chromatography in a final buffer of 50 mM Tris, pH 7.5, 200 mM NaCl, 1 mM TCEP, 1% (v/v) glycerol.
as §1

The target in the next test is T3, Itk^32K (Homo sapiens, UniProt Q08881).
T3 construct: Human Itk^171–620 (Itk^32K); GST (cleaved yes); made in house; host or cells: baculovirus-infected Sf9 insect cells
T3 sequence (Q08881 171-620): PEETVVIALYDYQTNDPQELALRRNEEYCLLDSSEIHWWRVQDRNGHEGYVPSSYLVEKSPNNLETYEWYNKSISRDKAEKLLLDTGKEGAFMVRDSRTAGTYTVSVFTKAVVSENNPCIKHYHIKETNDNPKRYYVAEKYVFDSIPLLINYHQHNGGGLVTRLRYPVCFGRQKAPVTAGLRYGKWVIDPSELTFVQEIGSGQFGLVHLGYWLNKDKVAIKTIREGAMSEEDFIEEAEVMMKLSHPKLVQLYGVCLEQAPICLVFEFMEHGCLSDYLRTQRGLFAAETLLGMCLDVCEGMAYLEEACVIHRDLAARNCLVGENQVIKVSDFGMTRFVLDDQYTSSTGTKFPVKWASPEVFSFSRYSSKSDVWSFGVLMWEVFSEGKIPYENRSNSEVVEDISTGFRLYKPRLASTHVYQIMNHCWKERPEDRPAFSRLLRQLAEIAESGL
The test can be described thus: Competition nucleotide displacement assay (Mant-ADP, fluorescence anisotropy). The class given is binding. The protocol:
Figure 1 Autoinhibited Itk and Src kinases preferentially bind ADP. (a) Schematic of constructs evaluated in this study. Itk^32K, Src^32K, and Src^32KΔC contain the conserved module of SH3, SH2, and kinase (^32K) domains. Src^32K was truncated by […] to remove its C-terminal tail (inclusive of the Y527 phosphorylation site), generating a construct we refer to as Src^32KΔC (ΔC-tail). (b) Competition nucleotide displacement assay for Itk^32K. 40 μM Itk^32K was incubated with 40 μM Mant-ADP until equilibrium was established. Unlabelled ADP or AMPPNP was titrated into the reaction and fluorescence anisotropy monitored. Comparison of the equilibrium inhibition constants (K i) gives an indication of the relative strength of nucleotide binding. […] (c) Competition nucleotide displacement assay for Src^32K. 40 μM tail-phosphorylated Src^32K (pY527) or doubly phosphorylated Src^32K pY416 (pY527) was incubated with 40 μM Mant-ADP until equilibrium was established. Unlabelled ADP or AMPPNP was titrated into the reaction and fluorescence anisotropy monitored. Solid lines correspond to Src^32K, dashed lines to Src^32K pY416. AMPPNP binds to Src^32K with 20-fold weaker affinity than ADP. […] (d) Omit map showing clear electron density for ADP and a single magnesium ion in the nucleotide-binding pocket of Src. The magnesium is coordinated by Asn391, Asp404, and the α- and β- phosphates of ADP. The β-phosphate is directly coordinated by the guanidinium side chain of Arg388. […]
Since the concentration of ATP in the cell is typically higher than ADP[33],[34], we performed nucleotide competition assays in order to determine which nucleotide is bound in vivo. We measured the concentrations of ADP or AMPPNP required to displace Mant-ADP. […]
The binding constants for ADP and AMPPNP were determined for Src and Itk proteins by fluorescence anisotropy, using 2′/3′-Mant-labelled nucleotides (Jena Bioscience). […] Unlabelled nucleotide was titrated into the reaction and fluorescence anisotropy monitored. The equilibrium inhibition constant for the unlabelled nucleotide was calculated from the fitted curve.

For another test, the target named is T4, Src^32KΔC L255A (Mus musculus, UniProt P05480, L257A).
T4 construct: mouse Src^85-523 (Src^32KΔC); GST (cleaved yes); made in house; host or cells: baculovirus-infected Sf9 insect cells
Nature of the test: Differential scanning fluorimetry (thermal stability vs nucleotide concentration). It is filed as binding. The text has this:
(§2) Figure 3 An allosteric switch triggers nucleotide exchange. (a) Hydrophobic stack conservation in Src family kinases. The table illustrates the amino acid identity at each of the three positions in the hydrophobic stack in addition to the invariant tryptophan (Trp260 in Src) for all Src family kinase members. The positions are presented according to their N- to C-terminal order in the primary sequences. Where it was not possible to unambiguously determine the identity of the amino acid contributed by the SH2-kinase variable linker (V3), the residue is denoted by a question mark. (b) Small angle X-ray scattering of Itk^32K L351A (black). The scattering curve for wild type Itk^32K (cyan) is overlaid for comparison. […] (c) Rigid body modelling of Itk^32K L351A and fit to ab initio molecular envelope. Displacement of both the SH3 and SH2 domains is required for a good fit to the experimental scattering curve. (d) Determination of the binding constants of Itk^32K L351A for nucleotides by fluorescence anisotropy. […] (e) Determination of the thermal stabilities and relative binding affinities of non-phosphorylated Src^32KΔC L255A for nucleotides by differential scanning fluorimetry. […] TEXT PRINTED IN THE PICTURE: (d) Mant-ADP: Itk^32K L351A (non-phos) Kd (μM): 21.0 ± 2.1 | (d) Mant-ATP: Itk^32K L351A (non-phos) Kd (μM): 31.7 ± 2.7 | (e) ADP: Src^32KΔC L255A (non-phos) [nuc]1/2 (μM): 310 ± 20; Src^32KΔC L255A (non-phos) Tm^max (°C): 52.9; Src^32KΔC L255A (non-phos) ΔTm^max (°C): + 6.8 | (e) ATP: Src^32KΔC L255A (non-phos) [nuc]1/2 (μM): 100 ± 10; Src^32KΔC L255A (non-phos) Tm^max (°C): 54.2; Src^32KΔC L255A (non-phos) ΔTm^max (°C): + 8.1 | (e) apo: Src^32KΔC L255A (non-phos) Tm^max (°C): 46.1
Due to limiting protein concentrations, we were unable to obtain a binding curve by fluorescence anisotropy, so we instead used thermal stability measurements to investigate its nucleotide-binding properties. Determination of accurate binding constants from thermal stability measurements requires knowledge of the enthalpy of unfolding. However, for a given protein, the enthalpy of unfolding is independent of the ligand being tested, so comparison of the concentrations of nucleotide required for half maximal stabilisation is valid.
Thermal stabilities as a function of nucleotide concentration were measured by differential scanning fluorimetry (DSF). Samples contained 0.1 mg/ml protein in 50 mM Tris pH 7.5, 150 mM NaCl, 1 mM TCEP, and 5 mM MgCl2 with ADP, ATP, or AMPPNP concentrations ranging from 0–16 mM. Samples were measured in triplicate using a BioRad iQ™5 Multicolor Real-Time PCR Detection System. For detection of phosphorylated protein, samples were diluted and 1 ng and 15 ng were loaded to SDS-PAGE for Src and Itk proteins, respectively. Phosphorylation was measured by immunoblot.
A general note: In DSF a fluorescence change marks the thermal transition of the protein.

A further test concerns the target T5, Itk^32K L351A (Homo sapiens, UniProt Q08881, L351A).
T5 construct: Human Itk^171–620 (Itk^32K); GST (cleaved yes); made in house; host or cells: baculovirus-infected Sf9 insect cells
T5 sequence (Q08881 171-620 L351A): T3 sequence (Q08881 171-620) with L181A
The test can be described thus: Fluorescence anisotropy binding of Mant-labelled nucleotides.
Excerpt: as §2
To establish whether hydrophobic stack disassembly triggers a switch in nucleotide binding of the kinase domain, we measured the binding of both unphosphorylated and activation loop phosphorylated (pY511) Itk^32K L351A to ADP and ATP.
as §1

[1] abbreviates: Src^32KΔC L255A non-phosphorylated, DSF.
[2] abbreviates: Itk^32K L351A non-phosphorylated, read-out: Kd.

Residue numbers refer to the chain shown, from its start. Where two headings read alike, the source gives them in different places.

Broadly, the Ki is the equilibrium dissociation constant of an inhibitor or competing ligand from its target. As for `Nc1ncnc2c1ncn2[C@@H]1O[C@H](COP(=O)(O)OP(=O)(O)NP(=O)(O)O)[C@@H](O)[C@H]1O` [AMPPNP], the Ki worked out at 690 ± 140 µM on Src^32KΔC and 7900 µM at Itk^32K (40 μM Itk^32K, 40 μM Mant-ADP, read-out: Ki (equilibrium inhibition constant)). Besides, the “fold difference in affinity, ADP tighter than AMPPNP” value on Src^32K was “approximately 6 fold”. Besides, on Itk^32K (Itk^32K, displacement of Mant-ADP), the “fold difference in Ki, AMPPNP weaker than ADP” value is recorded as approximately 41 fold.
Usually Kd stands for the constant that tells how readily two partners part at equilibrium. As for `Nc1ncnc2c1ncn2[C@@H]1O[C@H](COP(=O)(O)OP(=O)(O)OP(=O)(O)O)[C@@H](O)[C@H]1O` [ATP], the “additional thermal stability conferred by ATP over ADP” value at Src^32KΔC L255A (Src^32KΔC L255A non-phosphorylated) was 1.3 °C. Besides, at Src^32KΔC L255A (setting [1]), the “Tm^max” value was 54.2 °C and the “[nuc]1/2 (nucleotide concentration for half maximal stabilisation)” value is 100 ± 10 µM. The “relative binding of ATP versus ADP” value on Src^32KΔC L255A (Src^32KΔC L255A, from half maximal stabilisation concentrations) is on record as “approximately three times better than ADP”. The equilibrium dissociation constant (Kd) at Itk^32K L351A (activation loop-phosphorylated (pTyr511) Itk^32K L351A, read-out: Kd (binding constant)) stood at 37 µM.
On to Mant-ADP, for which the Kd at Itk^32K L351A (setting [2]) came to 21 ± 2.1 µM.
The same measure, in the same setting: the value for Mant-ATP was 31.7 ± 2.7 µM.

The values are drawn from PMC5727165, “A switch in nucleotide affinity governs activation of the Src and Tec family kinases” (Scientific Reports, 2017).
